This passage reports GI50 and TGI results from PubChem BioAssay (NCI).

The structures appear in SMILES notation. “And” between values parts separate entries of the source, which are not always exact repeats. Equal entries are not always repeated.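 48-hour exposure; five concentrations; linearly interpolated endpoints. GI50 is the concentration that inhibits growth by half. TGI: total growth inhibition.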

What all share (assay): inhibition of tumour cell growth, NCI panel, 48 h
In test [1] the test system is 786-0 renal.
The test system of test [2] is HOP-62 NSCLC.
The subject of test [3] is SF-268 CNS.
Test [4] deals with OVCAR-4 ovarian.
Test [5] concerns A549 NSCLC.
Test [6] has as its system SF-539 CNS.
The test system of test [7] is MDA-MB-435.
The subject of test [8] is U251 CNS.
Test [9] concerns HOP-92 NSCLC.
Test [10] relates to NCI-H226 lung.

As to `CN(Cc1ccc(Cl)cc1)c1ccc(CO)c(Cl)c1`, the GI50 in test [1] was 3.82 µM; in test [2], 5.75 µM; in test [3], 14.2 µM; in [4], 2.27 µM; in test [5], 3.9 µM; in test [6], 14 µM. Further, the GI50 in [7] is 13.5 µM; in test [8], 3.01 µM; in test [9], 3.16 µM; in [10], 0.115 µM. Moreover, the TGI stood at 17 µM in test [1]; 18.3 µM in [2]; 29.5 µM in [3]; 14 µM in [4]; 17.8 µM in test [5]; 28.8 µM in [6]. Besides, the TGI stood at 27.9 µM in [7], 15.9 µM in test [8], 16.1 µM in [9] and 0.285 µM in test [10].
On to `CCC1C(=O)OCc2c1cc1n(c2=O)Cc2cc3ccccc3nc2-1` (stereo unspecified), for which the TGI in test [1] is 27.3 µM; in [2] it was 25.5 µM; in test [3], over 100 µM; in test [4], over 100 µM; in [5], over 100 µM; in test [6] it was 5.67 µM. Besides, the TGI in test [7] is over 100 µM; in test [8], over 43 µM; in [9] it was over 100 µM; in test [10] it was over 100 µM.
On to `COc1cc(C(=O)N2N=C(c3ccc(S(C)(=O)=O)cc3)CC2c2ccco2)cc(OC)c1OC` (stereo unspecified), for which the GI50 in test [1] is 8.51 µM; in test [2], 26.7 µM; in [3], 8.93 µM; in test [4] it was 7.45 µM; in test [5], 6.92 µM; in test [6], 3.12 µM. For the same compound, the GI50 in test [7] was 1.27 µM; in test [8], 5.09 µM; in test [9] it was 3.65 µM; in test [10] it was over 57.3 µM. Also, the TGI in [1] is over 100 µM; in test [2] it was over 100 µM; in test [3], over 100 µM; in [4], over 100 µM; in test [5], over 100 µM; in test [6] it was 17.4 µM. The TGI is 7.27 µM in test [7], over 100 µM in [8], over 100 µM in test [9] and over 100 µM in [10].
Turning to `COc1cc(-n2cc(-c3ccc(F)cc3)nc2SCc2ccccc2)cc(OC)c1OC`, the GI50 in [1], in [2], in [3], in test [4], in test [5] and in [6] was over 100 µM in each case. The GI50 in test [7] was over 100 µM; in [8] it was over 100 µM; in [9], 1.48 µM; in test [10], over 100 µM. Also, the TGI in test [1], in test [2], in test [3], in [4], in test [5] and in test [6] was over 100 µM each time. Further, the TGI in test [7] was over 100 µM; in test [8], over 100 µM; in test [9], 37 µM; in test [10] it was over 100 µM.
For the compound `COc1ccc2c(c1O)C13CCN(C)C(C2)C1CCC1(C3)OCCO1` (stereo unspecified), the TGI in test [1], in test [2], in test [3], in [4], in test [5] and in [7] was over 100 µM in each case. Moreover, the TGI in test [8], in test [9] and in [10] was over 100 µM in each case.
`S=C(N/N=C(/c1ccccc1)c1ccccn1)N1CCCCC1`: the GI50 in test [1] was under 0.001 µM; in test [2], under 0.001 µM; in test [3], 0.323 µM; in test [4], 0.119 µM; in [5], 0.00361 µM; in test [6], 0.265 µM. Further, the GI50 was under 0.001 µM in test [8], 1.16 µM in test [9] and 0.00148 µM in test [10]. Besides, the TGI in test [1] was 1.87 µM and 1.88 µM; in [2], 2.33 µM and 2.78 µM; in test [3] it was 2.5 µM and 5.35 µM; in [4] it was 3.12 µM and 1.43 µM; in test [5], 1.71 µM and 3.88 µM; in test [6], 1.85 µM and 2.09 µM. Also, the TGI is 1.98 µM and 1.85 µM in test [7]; 1.45 µM and 1.76 µM in test [8]; 2.27 µM and 2.81 µM in test [9].
As for `CC(=O)CCc1ccc(OC2OC(COC(=O)c3cc(O)c(O)c(O)c3)C(O)C(O)C2OC(=O)/C=C/c2ccccc2)cc1` (stereo unspecified), the GI50 is 18.6 µM in test [1]; 17.2 µM in [2]; 19.3 µM in test [3]; 23.8 µM in test [4]; 25.8 µM in [5]; 26.4 µM in [6]. Moreover, the GI50 in test [7] is 16.8 µM; in [8] it was 11.9 µM; in [9] it was 30.4 µM; in [10], 16.9 µM. The TGI came to 48.2 µM in test [1]; 33.8 µM in test [2]; 49.4 µM in test [3]; 89.7 µM in test [4]; 59.7 µM in test [5]; 44.8 µM in test [6]. The TGI is 37.1 µM in test [7], 30.1 µM in [8], over 100 µM in test [9] and 37 µM in [10].
As for `Nc1cc(C(=O)O)[nH]c(=O)n1`, the TGI in test [1], in test [2], in test [3], in [4], in test [5] and in test [7] was over 100 µM each time. Moreover, the TGI in [8], in [9] and in test [10] was over 100 µM throughout.
